Assay results: PMC8587515, “Cytotoxic and Anti-Inflammatory Activities of Dihydroisocoumarin and Xanthone Derivatives from Garcinia picrorhiza” (Molecules, 2021)

Assays:
[1] = Cytotoxicity (XTT cell viability), RAW 264.7; assay type: cell-based; settings: mouse, RAW 264.7 macrophage cells, LPS/IFN-γ-stimulated, LPS-IFN-γ-induced cells, mean ± SEM (n = 6)
Method: (§1) Compounds 1–8 were screened for their inhibitory effects on nitric oxide production in LPS-IFN-γ activated RAW 264.7 macrophages and BV-2 microglial cells at a final concentration of 50 µM. […] A deprenylated furanoxanthone structure with ortho hydroxy group in ring B as in 7 might be important to enhance the inhibitory effect when compared to 6 and 8.
(§2) The iNOS inhibitory activity of the isolated compounds and respective cytotoxicity was determined using a previously described protocol. Briefly, BV-2 mouse microglial (25,000 cells/well) and RAW 264.7 mouse macrophage (100,000 cells/well) cell lines were seeded into 96-well plates in high glucose Dulbecco’s Modified Eagle’s Medium (DMEM, Gibco) containing 4 mM L-glutamine, 10% FBS, 2% HEPES, 1% penicillin/streptomycin, and 0.5% amphotericin B. After incubation for 24 h at 37 °C in a 5% CO2 humidified atmosphere, the cells were stimulated with 0.05% LPS (Sigma) and 0.025% interferon-γ (Roche Diagnostics, Mannheim, Germany) and treated with different concentrations (5–100 μM) of the tested compounds. The level of NO production in cell culture supernatants was determined using Griess reagent (Sigma) by photocolorimetric analysis after 16 h of incubation, using a Hidex Sense Microplate Reader (Hidex, Turku, Finland). Fifty microliters of XTT reagent (Sigma, Kit II) was then added into the same plates for cell viability measurement after 60 min incubation. L-NMMA (Alexis, Grünberg, Germany) 100 µM was used as the positive control, while 1% DMSO and digitonin (Roth, Karlsruhe, Germany) 400 µM were used as the vehicle and negative control, respectively. The assays were conducted in triplicates and repeated in two independent experiments. IC50 values were determined by graphical analysis using GraphPad Prism 7 (GraphPad Software, La Jolla, CA, USA).

[2] = test system: NO production in LPS-IFN-γ-induced BV-2 microglial cells; test: NO production inhibition assay (Griess), BV-2; assay type: cell-based, mouse; settings: for IC50: Mus musculus, BV-2, LPS-IFN-γ-induced, 16 h, mean ± SEM (n = 6), read-out: IC50, iNOS (inhibition of NO production), BV-2; for suppression of NO production, BV-2: final concentration of 50 µM, preliminary screen; for IC50 of NO inhibition lower than the cytotoxic activity, BV-2: ratio cytotoxicity IC50 / NO inhibition IC50 in BV-2 cells
Method: as §1, §2

[3] = biological target: T1, COX-2 (human recombinant PGHS-2) (Homo sapiens, UniProt P35354); test: COX-2 enzyme inhibition assay (PGE2 ELISA); assay type: biochemical; settings: mean ± SD (n = 4)
T1 construct: purchased Cayman Chemical Co., Ann Arbor, MI, USA
T1 sequence (P35354 18-604): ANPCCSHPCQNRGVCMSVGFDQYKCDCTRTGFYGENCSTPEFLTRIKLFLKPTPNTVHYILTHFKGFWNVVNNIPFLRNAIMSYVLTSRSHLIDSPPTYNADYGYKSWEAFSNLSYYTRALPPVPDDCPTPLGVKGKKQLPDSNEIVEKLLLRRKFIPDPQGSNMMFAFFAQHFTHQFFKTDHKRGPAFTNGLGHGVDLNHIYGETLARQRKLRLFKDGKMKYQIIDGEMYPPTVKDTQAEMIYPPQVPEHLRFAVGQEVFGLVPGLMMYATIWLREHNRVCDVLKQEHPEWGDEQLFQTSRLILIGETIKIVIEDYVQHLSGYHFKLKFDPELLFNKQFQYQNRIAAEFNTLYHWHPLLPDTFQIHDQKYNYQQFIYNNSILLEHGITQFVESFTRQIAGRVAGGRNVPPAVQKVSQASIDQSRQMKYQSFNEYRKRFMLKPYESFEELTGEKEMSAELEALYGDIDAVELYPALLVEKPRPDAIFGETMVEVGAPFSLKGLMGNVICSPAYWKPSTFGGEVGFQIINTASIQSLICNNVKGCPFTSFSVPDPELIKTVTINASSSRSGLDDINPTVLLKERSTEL
Method: (§3) The anti-inflammatory effects of the isolated compounds were also screened on COX-1 and COX-2 enzymes inhibition at a final concentration of 20 µM.
(§4) Purified PGHS-1 from ram seminal vesicles for COX-1 and human recombinant PGHS-2 for COX-2 (Cayman Chemical Co., Ann Arbor, MI, USA) were used for the COX inhibition assays. Experiments were performed in a 96-well plate format, as previously described. Briefly, the incubation mixture contained 180 µL of 0.1 M TRIS/HCl-buffer pH 8.0 (Roth, Karlsruhe, Germany), 50 µM Na2EDTA (only for COX-2, Titriplex III, Merck, Darmstadt, Germany), 18 mM L-epinepherine bitartrate (Fluka, Buchs, Switzerland), 5 µM porcine hematin (MP Biomedicals LLC, Solon, OH, USA), and COX-1 or COX-2 enzymes (0.2 U/well). Ten microliters of tested compounds (dissolved in DMSO with a final concentration of 20 µM) was added and the mixture was pre-incubated for 5 min at room temperature. Thereafter, 10 µL of 5 µM arachidonic acid (Ann Arbor, Michigan USA) was added to the mixture and incubated for 20 min at 37 °C. The reaction was subsequently stopped by adding 10 µL of 10% (v/v) formic acid. The concentration of PGE2 generated in the reaction was quantitatively measured by a competitive PGE2 ELISA kit (Enzo Life Sciences Inc., Farmingdale, NY, USA) according to the manufacturer’s protocol and previous procedure. The absorbance at 405 nm was measured using a Hidex Sense Microplate Reader (Hidex, Turku, Finland). […] The assays were performed in duplicates and repeated in two independent experiments.

[4] = biological target: T2, COX-1 (purified PGHS-1 from ram seminal vesicles) (Ovis aries, UniProt P05979); test: COX-1 enzyme inhibition assay (PGE2 ELISA); assay type: biochemical; settings: mean ± SD (n = 4)
T2 construct: Purified PGHS-1 from ram seminal vesicles for COX-1; purchased Cayman Chemical Co., Ann Arbor, MI, USA; host or cells: ram seminal vesicles (tissue-purified)
T2 sequence (P05979 25-600): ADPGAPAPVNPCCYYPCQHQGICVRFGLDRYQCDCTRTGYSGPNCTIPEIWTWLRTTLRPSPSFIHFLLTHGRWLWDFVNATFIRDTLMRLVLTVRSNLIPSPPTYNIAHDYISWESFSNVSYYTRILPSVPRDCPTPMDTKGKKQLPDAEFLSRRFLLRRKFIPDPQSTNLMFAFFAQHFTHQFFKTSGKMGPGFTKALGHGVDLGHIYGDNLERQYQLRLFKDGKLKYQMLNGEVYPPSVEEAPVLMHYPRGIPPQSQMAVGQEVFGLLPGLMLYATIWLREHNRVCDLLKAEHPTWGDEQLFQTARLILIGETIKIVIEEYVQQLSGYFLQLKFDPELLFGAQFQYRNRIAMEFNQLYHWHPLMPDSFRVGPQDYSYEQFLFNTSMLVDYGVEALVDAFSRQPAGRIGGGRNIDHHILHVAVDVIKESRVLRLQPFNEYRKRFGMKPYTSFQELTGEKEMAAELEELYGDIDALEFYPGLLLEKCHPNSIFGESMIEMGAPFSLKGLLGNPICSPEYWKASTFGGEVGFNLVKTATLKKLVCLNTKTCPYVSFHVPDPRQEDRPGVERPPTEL
Method: as §3, §4

In the case of `C[C@@H]1Oc2cc(O)c3c(=O)c4ccc(O)c(O)c4oc3c2C1(C)C` [Compound 7, 2-deprenylrheediaxanthone B], the IC50 at 16 h [1] is reported as 85.6 ± 6.9 µM, the IC50 [2] is reported as 28.7 ± 2.3 µM and the “suppression of NO production, BV-2” value [2] is reported as “over 70%”. For the same compound, the “IC50 of NO inhibition lower than the cytotoxic activity, BV-2” value [2] was 1.1 fold, the inhibition at 20 µM [3] was under 10% and the inhibition at 20 µM [4] was 15.4 ± 7.5%.
For `C[C@H]1Oc2c(c(O)c3c(=O)c4ccc(O)c(O)c4oc3c2CCC(C)(C)O)C1(C)C` [Compound 4, gerontoxanthone C hydrate], the IC50 at 16 h [1] was over 200 µM, the IC50 [2] was 20 ± 4 µM and the “suppression of NO production, BV-2” value [2] was “over 70%”. The “IC50 of NO inhibition lower than the cytotoxic activity, BV-2” value [2] was 1.4 fold, the inhibition at 20 µM [3] was under 10% and the inhibition at 20 µM [4] was 32.4 ± 7.9%.
